In patent publication US8163737B2 (Vertex Pharmaceuticals Incorporated, priority 2006, dated 2012) one finds Ki and IC50 data, which are given here for 43 compounds.

A value given as a limit tells only on which side of the number the result lay.

For experiment [1], the target named is T1, CGRP receptor (SK-N-MC membrane) (Homo sapiens, UniProt O60894+Q16602).
T1 construct: Purified SK-N-MC membrane was purchased from Perkin Elmer; purchased Perkin Elmer; host or cells: SK-N-MC membrane
Kind of experiment: I125-CGRP binding displacement assay on purified SK-N-MC membrane. The method, boiled down:
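Human SK-N-MC membranes incubated with compounds and I125-CGRP for 2 h at room temperature in 25 mM Tris-HCl pH 7.4, 5 mM MgCl2, 0.1% BSA, 0.05% Tween, then filtered and counted. Nonspecific binding defined with 1 uM unlabelled CGRP; percent displacement fitted to curves.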

Another experiment deals with endogenous CGRP receptor (Homo sapiens, UniProt O60894+Q16602). Kind of experiment: CGRP functional antagonism using SK-N-MC-BLA (4C10), β-lactamase transcriptional reporter assay. Particulars: SK-N-MC (4C10) cells, inhibition of β-lactamase expression in the presence of 200 pM CGRP. It is filed as cell-based.
Sequence of endogenous CGRP receptor (Q16602 23-461): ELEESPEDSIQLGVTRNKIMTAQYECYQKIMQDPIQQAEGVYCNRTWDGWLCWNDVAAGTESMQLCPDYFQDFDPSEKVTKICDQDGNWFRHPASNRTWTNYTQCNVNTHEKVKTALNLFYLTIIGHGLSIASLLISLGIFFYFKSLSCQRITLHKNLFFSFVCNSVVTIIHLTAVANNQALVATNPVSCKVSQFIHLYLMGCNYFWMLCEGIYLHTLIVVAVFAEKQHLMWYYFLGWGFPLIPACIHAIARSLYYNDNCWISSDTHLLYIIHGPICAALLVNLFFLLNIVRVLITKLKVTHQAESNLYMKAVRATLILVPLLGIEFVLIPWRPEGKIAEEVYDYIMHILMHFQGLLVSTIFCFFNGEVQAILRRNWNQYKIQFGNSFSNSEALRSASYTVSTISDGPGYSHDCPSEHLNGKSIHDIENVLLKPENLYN
Sequence of endogenous CGRP receptor (O60894 27-148): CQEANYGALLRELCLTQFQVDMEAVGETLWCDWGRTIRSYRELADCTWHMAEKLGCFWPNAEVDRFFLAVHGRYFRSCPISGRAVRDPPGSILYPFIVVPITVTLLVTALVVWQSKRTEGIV

T1 sequence (Q16602 23-461): as the sequence (Q16602 23-461) above
T1 sequence (O60894 27-148): as the sequence (O60894 27-148) above

`CC(C)N1CCN(c2c(F)cccc2[C@H]2S[C@@](C)(CC(=O)N3CCC(N4CCc5ccccc5NC4=O)CC3)C(=O)N2CCC(C)(C)C)CC1` [Compound 432]: in experiment [1], the Ki (in general, a dissociation constant, usually derived from enzyme kinetics or from competition with a known ligand) is under 1 µM. For the same compound, on endogenous CGRP receptor, the IC50 (usually the concentration needed to halve the response being measured) was under 1 µM.
In turn, `CN1CCN(c2cc(F)ccc2C2SC(CC(=O)N3CCC(n4cc(-c5ccccc5)[nH]c4=O)CC3)C(=O)N2CCC(C)(C)C)CC1` (centres unmarked) [Compound 363] yielded a Ki in experiment [1] of under 1 µM. Further, on endogenous CGRP receptor, the IC50 was under 1 µM.
`O=C(CC1SC(c2ccccc2)N(c2ccc3[nH]ncc3c2)C1=O)N1CCC(N2Cc3ccccc3NC2=O)CC1` (centres unmarked) [Compound 287]: in experiment [1], the Ki fell in the range of 1 to 5 µM. At endogenous CGRP receptor, the IC50 was in the range of 1 to 5 µM.
In turn, `CC(C)(C)N1CCN(c2c(F)cccc2[C@H]2S[C@@H](CC(=O)N3CCC(N4CCc5ccccc5NC4=O)CC3)C(=O)N2Cc2ccccc2)CC1` [Compound 547] had a Ki in experiment [1] of under 1 µM. The IC50 on endogenous CGRP receptor was under 1 µM.
In turn, `CC(C)(C)CCN1C(=O)C(CC(=O)N2CCC(N3CCc4ccccc4NC3=O)CC2)SC1c1cccc(F)c1N1CCNCC1` (centres unmarked) [Compound 391] came in with an inhibition constant (Ki) in experiment [1] of over 5 µM. For the same compound, the IC50 on endogenous CGRP receptor was over 5 µM.
`CC(C)CCN1C(=O)C(CC(=O)N2CCC(N3CCc4ccccc4NC3=O)CC2)SC1c1ccc(F)cc1Cl` (centres unmarked) [Compound 79] displayed a Ki in experiment [1] of under 1 µM. Besides, the IC50 at endogenous CGRP receptor is under 1 µM.
In experiment [1], `CC(C)CCN1C(=O)C(CC(=O)N2CCC(N3CCc4ccccc4NC3=O)CC2)SC1c1ccccc1F` (centres unmarked) [Compound 149] yielded a Ki of under 1 µM. Also, at endogenous CGRP receptor, the half-maximal inhibitory concentration (IC50) is under 1 µM.
`CC(C)(C)CCN1C(=O)C(CC(=O)N2CCC(N3CCc4ccccc4NC3=O)CC2)SC1c1cccc(F)c1N1CCN(C2CC2)CC1` (centres unmarked) [Compound 389] yielded a Ki in experiment [1] of under 1 µM. Moreover, the IC50 at endogenous CGRP receptor was under 1 µM.
Regarding `CC(C)CCN1C(=O)C(CC(=O)N2CCC(N3CCc4ccccc4NC3=O)CC2)SC1c1ccccc1N1CCOCC1` (centres unmarked) [Compound 10], the Ki in experiment [1] is under 1 µM. The IC50 on endogenous CGRP receptor is under 1 µM.
Turning to `CC(C)(C)CCN1C(=O)[C@H](CC(=O)N2CCC(n3c(=O)[nH]c4ncccc43)CC2)SC1c1cccc(F)c1C1CCN(C(=O)OC(C)(C)C)CC1` (some centres unmarked) [Compound 551], the Ki in experiment [1] is 1 to 5 µM. Besides, at endogenous CGRP receptor, the IC50 was over 5 µM.
Taken in the same sequence, the figures for `Cc1ccccc1C1SC(CC(=O)N2CCC(N3Cc4ccccc4NC3=O)CC2)C(=O)N1CCC(C)C` (centres unmarked) [Compound 172] were under 1 µM and under 1 µM.
As to `O=C(CC1SC(c2ccccc2)N(CCc2ccccn2)C1=O)N1CCC(N2Cc3ccccc3NC2=O)CC1` (centres unmarked) [Compound 128], the Ki in experiment [1] was under 1 µM. The IC50 at endogenous CGRP receptor lay in the range of 1 to 5 µM.
As to `COc1ccc(C2SC(CC(=O)N3CCC(N4Cc5ccccc5NC4=O)CC3)C(=O)N2CCC(C)C)c(F)c1` (centres unmarked) [Compound 283], the Ki in experiment [1] was under 1 µM. Moreover, on endogenous CGRP receptor, the IC50 was 1 to 5 µM.
Take `CCN1CCN(c2c(F)cccc2C2SC(CC(=O)N3CCC(N4CCc5ccccc5NC4=O)CC3)C(=O)N2CCC(C)(C)C)CC1` (centres unmarked) [Compound 345]: in experiment [1], the inhibitory constant (Ki) was under 1 µM. Further, on endogenous CGRP receptor, the IC50 is under 1 µM.
In turn, `CN1CCN(c2ccc(F)cc2[C@H]2S[C@@H](CC(=O)N3CCC(n4c(=O)[nH]c5ncccc54)CC3)C(=O)N2CCC(C)(C)C)CC1` [Compound 397] registered a Ki in experiment [1] of over 5 µM. Further, the IC50 on endogenous CGRP receptor is over 5 µM.
As for `CC(C)(C)N1CCN(c2c(F)cccc2[C@@H]2S[C@@H](CC(=O)N3CCC(N4CCc5ccccc5NC4=O)CC3)C(=O)N2CCc2ccccc2)CC1` [Compound 508], the Ki in experiment [1] is under 1 µM. Further, on endogenous CGRP receptor, the IC50 was under 1 µM.
As to `CC(C)CCN1C(=O)C(CC(=O)N2CCC(N3CCc4ccccc4NC3=O)CC2)SC1C1CCCCC1` (centres unmarked) [Compound 37], the inhibition constant Ki in experiment [1] was under 1 µM. Also, the IC50 at endogenous CGRP receptor was under 1 µM.
`CC(C)(C)CCN1C(=O)[C@H](CC(=O)N2CCC(N3CCc4ccccc4NC3=O)CC2)SC1c1ccn(C2CCN(C(=O)OC(C)(C)C)CC2)n1` (some centres unmarked) [Compound 490] registered a Ki in experiment [1] of under 1 µM. For the same compound, the IC50 at endogenous CGRP receptor is over 5 µM.
Consider `CC(C)CCN1C(=O)C(CC(=O)N2CCC(n3cc(-c4ccccc4)[nH]c3=O)CC2)SC1c1ccccc1` (centres unmarked) [Compound 110], for which, in experiment [1], the Ki was over 5 µM. The IC50 at endogenous CGRP receptor was over 5 µM.
For the compound `CN1CCN(c2c(Cl)cccc2C2SC(CC(=O)N3CCC(n4c(=O)[nH]c5ncccc54)CC3)C(=O)N2CCC(C)(C)C)CC1` (centres unmarked) [Compound 357], the inhibitory constant (Ki) in experiment [1] is under 1 µM. For the same compound, the concentration for half-maximal inhibition (IC50) on endogenous CGRP receptor was under 1 µM.
The compound `CC(C)(C)N1CCN(c2c(F)cccc2[C@@H]2S[C@@H](CC(=O)N3CCC(N4CCc5ccccc5NC4=O)CC3)C(=O)N2CCc2ccc(F)cc2)CC1` [Compound 504] showed a Ki in experiment [1] of under 1 µM. Besides, the IC50 on endogenous CGRP receptor is under 1 µM.
Take `CN1CCN(c2cccc(F)c2C2SC(CC(=O)N3CCC(n4c(=O)[nH]c5ccccc54)CC3)C(=O)N2CCC(C)(C)C)CC1` (centres unmarked) [Compound 348]: the Ki in experiment [1] was over 5 µM. Moreover, the IC50 on endogenous CGRP receptor fell in the range of 1 to 5 µM.
In turn, `CC(C)(C)CCN1C(=O)[C@H](CC(=O)N2CCC(n3c(=O)[nH]c4ncccc43)CC2)S[C@H]1c1cccc(F)c1N1CCN(C(C)(C)C)CC1` [Compound 436] registered a Ki in experiment [1] of under 1 µM. On endogenous CGRP receptor, the IC50 is under 1 µM.
With `CC(C)CCN1C(=O)C(CC(=O)N2CCC(N3Cc4ccccc4NC3=O)CC2)SC1c1ccc(C#N)cc1` (centres unmarked) [Compound 63], the Ki in experiment [1] was under 1 µM. Also, the IC50 on endogenous CGRP receptor is under 1 µM.
`O=C(CC1SC(c2ccccc2)N(C2CC2)C1=O)N1CCC(N2Cc3ccccc3NC2=O)CC1` (centres unmarked) [Compound 230]: in experiment [1], the Ki is 1 to 5 µM. Moreover, on endogenous CGRP receptor, the half-maximal inhibitory concentration (IC50) was over 5 µM.
`O=C(CC1SC(c2ccccc2)N(Cc2ccc(F)cc2)C1=O)N1CCC(N2Cc3ccccc3NC2=O)CC1` (centres unmarked) [Compound 208] showed an inhibition constant (Ki) in experiment [1] of under 1 µM. Also, the IC50 at endogenous CGRP receptor was under 1 µM.
`CC(C)CCN1C(=O)C(CC(=O)N2CCC(N3CCc4ccccc4NC3=O)CC2)SC1c1ccc(F)cc1F` (centres unmarked) [Compound 44]: the inhibition constant (Ki) in experiment [1] was under 1 µM. Moreover, the IC50 at endogenous CGRP receptor was under 1 µM.
Regarding `CC(C)CCN1C(=O)C(CC(=O)N2CCC(N3CCc4ccccc4NC3=O)CC2)SC1c1ccccc1-n1cccn1` (centres unmarked) [Compound 183], the Ki in experiment [1] was under 1 µM. Further, the IC50 at endogenous CGRP receptor was under 1 µM.
As for `CC(C)CCN1C(=O)[C@H](CC(=O)N2CCC(N3Cc4ccccc4NC3=O)CC2)SC1c1ccccn1` (some centres unmarked) [Compound 148], in experiment [1], the inhibition constant (Ki) is under 1 µM. The IC50 on endogenous CGRP receptor lay within 1 to 5 µM.
In experiment [1], `CC(C)(C)CCN1C(=O)C(CC(=O)N2CCC(N3Cc4ccccc4NC3=O)CC2)SC1c1ccccc1-n1cccn1` (centres unmarked) [Compound 115] had a Ki of under 1 µM. For the same compound, the IC50 on endogenous CGRP receptor was under 1 µM.
As for `CC(C)CN1CCN(c2ccccc2[C@H]2S[C@@H](CC(=O)N3CCC(N4CCc5ccccc5NC4=O)CC3)C(=O)N2CCC(C)(C)C)C(=O)C1` [Compound 541], the inhibition constant Ki in experiment [1] was under 1 µM. Besides, the half-inhibitory concentration (IC50) at endogenous CGRP receptor was under 1 µM.
For the compound `CN(C)CCNc1c(F)cccc1C1S[C@@H](CC(=O)N2CCC(N3CCc4ccccc4NC3=O)CC2)C(=O)N1CCC(C)(C)C` (stereo partly drawn) [Compound 513, 3-(1-(2-((5S)-2-(2-(2-(Dimethylamino)ethylamino)-3-fluorophenyl)-3-(3,3-dimethylbutyl)-4-oxothiazolidin-5-yl)acetyl)piperidin-4-yl)-4,5-dihydro-1H-benzo[d][1,3]diazepin-2(3H)-one], the Ki in experiment [1] is under 1 µM. Further, on endogenous CGRP receptor, the IC50 is under 1 µM.
For the compound `CC(C)(C)N1CCN(c2c(F)cccc2[C@@H]2S[C@@H](CC(=O)N3CCC(N4CCc5ccccc5NC4=O)CC3)C(=O)N2CC2CC2)CC1` [Compound 488], the inhibitory constant (Ki) in experiment [1] was under 1 µM. Also, at endogenous CGRP receptor, the IC50 was under 1 µM.
Consider `CC(C)N1CCN(c2c(F)cccc2[C@H]2S[C@@](C)(CC(=O)N3CCC(n4c(=O)[nH]c5ncccc54)CC3)C(=O)N2CCC(C)(C)C)CC1` [Compound 446], for which the Ki in experiment [1] was under 1 µM. The IC50 at endogenous CGRP receptor is under 1 µM.
On to `CC(C)(C)CCN1C(=O)C(CC(=O)N2CCC(N3CCc4ccccc4NC3=O)CC2)SC1c1ccccc1N1CCOCC1` (centres unmarked) [Compound 70], for which the Ki in experiment [1] is under 1 µM. Further, at endogenous CGRP receptor, the IC50 is under 1 µM.
Compound `CC(C)(C)CCN1C(=O)[C@H](CC(=O)N2CCC(N3CCc4ccccc4NC3=O)CC2)SC1c1ccccc1N1CCNCC1=O` (some centres unmarked) [Compound 511] showed a Ki in experiment [1] of under 1 µM. At endogenous CGRP receptor, the IC50 is under 1 µM.
With `CC(C)(C)CCN1C(=O)C(CC(=O)N2CCC(N3Cc4ccccc4NC3=O)CC2)SC12CCCc1ccccc12` (centres unmarked) [Compound 315], the Ki in experiment [1] is under 1 µM. The IC50 at endogenous CGRP receptor is under 1 µM.
`COC(=O)[C@@H](CC(C)C)N1C(=O)C(CC(=O)N2CCC(N3CCc4ccccc4NC3=O)CC2)SC1c1ccccc1` (some centres unmarked) [Compound 225] returned a Ki in experiment [1] of under 1 µM. Also, the half-inhibitory concentration (IC50) on endogenous CGRP receptor was under 1 µM.
Take `CC(C)CN1CCC(c2ncc(C3S[C@@H](CC(=O)N4CCC(N5CCc6ccccc6NC5=O)CC4)C(=O)N3CCC(C)(C)C)s2)CC1` (stereo partly drawn) [Compound 498, (5S)-3-(3,3-Dimethylbutyl)-2-(2-(1-isobutylpiperidin-4-yl)thiazol-5-yl)-5-(2-oxo-2-(4-(2-oxo-4,5-dihydro-1H-benzo[d][1,3]diazepin-3(2H)-yl)piperidin-1-yl)ethyl)thiazolidin-4-one]: the Ki in experiment [1] is under 1 µM. The IC50 at endogenous CGRP receptor was under 1 µM.
On to `CC(C)CCN1C(=O)C(CC(=O)N2CCC(N3CCc4ccccc4NC3=O)CC2)SC1c1ccccc1` (centres unmarked) [Compound 78], for which the Ki in experiment [1] was under 1 µM. The IC50 at endogenous CGRP receptor was under 1 µM.
Compound `CN1CCN(c2ccccc2C2SC(CC(=O)N3CCC(c4cc5ccccc5[nH]c4=O)CC3)C(=O)N2CCC(C)(C)C)CC1` (centres unmarked) [Compound 303] displayed a Ki in experiment [1] of under 1 µM. In addition, the IC50 on endogenous CGRP receptor is under 1 µM.
In turn, `CC(C)(C)CCN1C(=O)[C@H](CC(=O)N2CCC(n3c(=O)[nH]c4ncccc43)CC2)S[C@H]1c1cccc(F)c1N1CCC(N)C1` (some centres unmarked) [Compound 470] displayed a Ki in experiment [1] of under 1 µM. Moreover, the IC50 at endogenous CGRP receptor is under 1 µM.
Take `CC(C)(C)CCN1C(=O)C(CC(=O)N2CCC(N3CCc4ccccc4NC3=O)CC2)SC1c1ccccc1N1CCC(O)CC1` (centres unmarked) [Compound 150]: in experiment [1], the Ki is under 1 µM. Besides, the IC50 at endogenous CGRP receptor is under 1 µM.
